Measured values reported in patent US9533965B2, “2-arylbenzofuran-7-formamide compounds, preparation method and use thereof” (SHANGHAI INSTITUTE OF MATERIA MEDICA, CHINESE ACADEMY OF …, priority 2012, dated 2017).
Values joined by “and” are separate entries in the source; they are usually repeats but may differ in a detail not shown here. Equal entries are not always repeated. Where two headings read alike, the source gives them in different places.

Columns and labels:
PARP3 = biological target: T1, PARP3 (Homo sapiens, UniProt Q9Y6F1); assay: Enzymatic inhibition on the PARP family members (ELISA), PARP3; format: biochemical; conditions: PARP family panel
T1 sequence (Q9Y6F1 1-533): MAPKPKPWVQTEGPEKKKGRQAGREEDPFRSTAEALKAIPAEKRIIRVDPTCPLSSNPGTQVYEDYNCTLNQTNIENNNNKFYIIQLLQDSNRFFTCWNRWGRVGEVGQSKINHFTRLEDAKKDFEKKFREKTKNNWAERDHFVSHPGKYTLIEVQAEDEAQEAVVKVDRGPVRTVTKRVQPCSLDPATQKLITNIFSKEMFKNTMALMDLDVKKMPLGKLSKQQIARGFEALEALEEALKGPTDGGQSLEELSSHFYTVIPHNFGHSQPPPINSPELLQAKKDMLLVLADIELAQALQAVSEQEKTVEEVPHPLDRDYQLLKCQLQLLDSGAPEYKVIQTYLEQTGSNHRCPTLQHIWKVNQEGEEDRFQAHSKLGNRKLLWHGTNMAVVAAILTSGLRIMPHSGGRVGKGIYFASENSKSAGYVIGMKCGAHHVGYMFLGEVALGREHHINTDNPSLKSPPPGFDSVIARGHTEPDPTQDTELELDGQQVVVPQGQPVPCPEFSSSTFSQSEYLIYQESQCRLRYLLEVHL

PARP1 = PARP1 (Homo sapiens, UniProt P09874); assay: PARP1 enzymatic inhibition at molecular levels (ELISA); conditions: ELISA IC50, PARP1 enzyme, molecular level
PARP1, sequence (P09874 whole entry): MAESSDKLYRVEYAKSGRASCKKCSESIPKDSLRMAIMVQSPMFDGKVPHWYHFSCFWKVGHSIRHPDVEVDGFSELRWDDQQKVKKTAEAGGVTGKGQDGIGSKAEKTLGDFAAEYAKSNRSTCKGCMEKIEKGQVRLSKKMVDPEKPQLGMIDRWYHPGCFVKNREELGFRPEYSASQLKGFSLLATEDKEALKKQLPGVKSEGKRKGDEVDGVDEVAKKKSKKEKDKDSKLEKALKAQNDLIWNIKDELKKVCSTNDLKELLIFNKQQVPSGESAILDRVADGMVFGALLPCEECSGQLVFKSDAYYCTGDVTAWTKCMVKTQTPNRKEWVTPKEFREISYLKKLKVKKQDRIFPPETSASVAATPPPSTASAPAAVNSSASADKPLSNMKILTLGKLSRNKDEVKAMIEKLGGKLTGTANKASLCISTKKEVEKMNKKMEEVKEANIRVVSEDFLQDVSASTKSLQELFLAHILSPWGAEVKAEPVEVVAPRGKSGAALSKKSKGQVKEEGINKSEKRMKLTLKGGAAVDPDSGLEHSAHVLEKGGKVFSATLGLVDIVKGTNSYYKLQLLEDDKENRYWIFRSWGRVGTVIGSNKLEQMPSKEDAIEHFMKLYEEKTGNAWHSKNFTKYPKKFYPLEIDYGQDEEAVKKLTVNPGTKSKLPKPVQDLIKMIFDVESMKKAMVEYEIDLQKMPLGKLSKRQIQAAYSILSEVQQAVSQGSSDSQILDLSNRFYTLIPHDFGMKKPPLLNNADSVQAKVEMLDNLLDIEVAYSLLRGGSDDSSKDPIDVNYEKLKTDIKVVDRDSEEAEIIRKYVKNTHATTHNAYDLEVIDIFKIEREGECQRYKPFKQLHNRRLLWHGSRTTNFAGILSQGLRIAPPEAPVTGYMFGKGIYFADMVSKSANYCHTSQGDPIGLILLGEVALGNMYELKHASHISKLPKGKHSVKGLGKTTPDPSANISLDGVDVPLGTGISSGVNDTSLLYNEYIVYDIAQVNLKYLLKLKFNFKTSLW

[1] = Preliminary pharmacokinetic experiment in rats by gavage; format: in vivo, SD rats; conditions: 10 mg/kg by gavage
Protocol: Healthy SD rats (supplied by Shanghai Sippr-BK Lab. Animal Co. Ltd, the Production License Number for the experimental animals: SCXK (hu), 200-220 g of weight, male) were divided into groups randomly and administrated by gavage, respectively. The compound was dissolved in normal saline.
The rats fasted for 12 h and could drink water ad libitum before experiment. 2 h after dosing, the rats were provided with food all together.
The time point for collecting blood samples and the sample processing are listed as follows.
Intragastric administration: 0.25, 0.5, 1.0, 2.0, 3.0, 5.0, 7.0, 9.0 and 24 h after administration: 0.3 mL venous blood was taken from retrobulbar venous plexus of the rat and loaded into heparinization tubes. After being centrifuged at 11000 rpm for 5 min, the plasma was separated and frozen at −20° C. in a refrigerator.

PARP2 = PARP2 (Homo sapiens, UniProt Q9UGN5); assay: Enzymatic inhibition on the PARP family members (ELISA), PARP2; format: biochemical; conditions: PARP family panel
PARP2, sequence (Q9UGN5 whole entry): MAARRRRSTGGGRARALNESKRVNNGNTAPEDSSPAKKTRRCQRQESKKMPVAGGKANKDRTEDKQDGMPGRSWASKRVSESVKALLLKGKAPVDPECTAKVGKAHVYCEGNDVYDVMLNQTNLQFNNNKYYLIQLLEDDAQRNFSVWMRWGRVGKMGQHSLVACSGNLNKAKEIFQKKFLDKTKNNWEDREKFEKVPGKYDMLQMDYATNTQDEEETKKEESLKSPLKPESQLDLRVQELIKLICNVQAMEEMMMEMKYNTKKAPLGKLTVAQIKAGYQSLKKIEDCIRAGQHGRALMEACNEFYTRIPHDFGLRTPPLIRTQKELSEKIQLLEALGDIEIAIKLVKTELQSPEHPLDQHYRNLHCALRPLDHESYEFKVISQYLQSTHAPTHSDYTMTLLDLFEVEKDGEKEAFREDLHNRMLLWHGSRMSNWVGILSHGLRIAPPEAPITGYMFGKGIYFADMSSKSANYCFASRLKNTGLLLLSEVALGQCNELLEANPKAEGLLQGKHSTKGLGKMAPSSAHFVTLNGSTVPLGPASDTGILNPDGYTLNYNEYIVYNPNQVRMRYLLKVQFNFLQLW

[2] = system: Chinese hamster lung fibroblast cell line VC8 (BRCA2−/−); assay: In vitro cell proliferation inhibition (MTT), VC8 cells; format: cell-based; conditions: Cricetulus griseus, V-C8, 72 h, MTT, 72 h, VC8 (BRCA2−/−); read-out: VC8 cell IC50
wild type cell line V79 = assay: In vitro cell proliferation inhibition (MTT), V79 cells; format: cell-based, Chinese hamster; conditions: Cricetulus griseus; MTT, 72 h, wild type V79; read-out: V79 cell IC50
TNKS2 = biological target: T2, TNKS2 (Homo sapiens, UniProt Q9H2K2); assay: Enzymatic inhibition on the PARP family members (ELISA), TNKS2; format: biochemical; conditions: PARP family panel, 30° C.
T2 sequence (Q9H2K2 1-1166): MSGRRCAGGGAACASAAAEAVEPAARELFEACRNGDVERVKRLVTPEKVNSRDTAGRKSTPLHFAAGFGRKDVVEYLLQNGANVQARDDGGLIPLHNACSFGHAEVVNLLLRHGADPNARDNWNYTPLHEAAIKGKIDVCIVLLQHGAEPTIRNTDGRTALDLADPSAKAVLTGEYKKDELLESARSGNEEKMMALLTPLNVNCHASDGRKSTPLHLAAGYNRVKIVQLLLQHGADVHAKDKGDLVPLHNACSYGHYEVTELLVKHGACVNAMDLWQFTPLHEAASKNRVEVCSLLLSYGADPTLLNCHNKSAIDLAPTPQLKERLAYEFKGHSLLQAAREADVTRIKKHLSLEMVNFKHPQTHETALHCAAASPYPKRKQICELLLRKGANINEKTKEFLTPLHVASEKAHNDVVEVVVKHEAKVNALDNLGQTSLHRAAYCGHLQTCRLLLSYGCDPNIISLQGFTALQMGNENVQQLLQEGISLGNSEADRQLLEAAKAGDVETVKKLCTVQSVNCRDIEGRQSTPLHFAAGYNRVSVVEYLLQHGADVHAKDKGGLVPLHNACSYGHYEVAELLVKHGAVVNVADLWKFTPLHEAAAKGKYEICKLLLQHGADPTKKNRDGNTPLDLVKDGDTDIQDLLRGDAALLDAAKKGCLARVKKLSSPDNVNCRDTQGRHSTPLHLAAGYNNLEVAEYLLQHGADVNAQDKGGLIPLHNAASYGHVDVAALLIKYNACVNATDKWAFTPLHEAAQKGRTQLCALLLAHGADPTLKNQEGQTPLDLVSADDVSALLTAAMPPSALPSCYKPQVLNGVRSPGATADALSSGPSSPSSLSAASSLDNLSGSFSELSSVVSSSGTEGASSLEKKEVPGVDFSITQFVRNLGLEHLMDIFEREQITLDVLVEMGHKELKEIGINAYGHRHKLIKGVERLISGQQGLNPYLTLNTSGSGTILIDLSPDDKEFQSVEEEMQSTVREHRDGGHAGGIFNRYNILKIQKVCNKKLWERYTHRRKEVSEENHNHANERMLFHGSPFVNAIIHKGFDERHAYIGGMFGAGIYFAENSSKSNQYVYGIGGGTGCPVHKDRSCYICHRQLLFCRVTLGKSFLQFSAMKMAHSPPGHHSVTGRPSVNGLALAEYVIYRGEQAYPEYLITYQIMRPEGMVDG

- IC50 (PARP3): > 10 µM
- IC50 (PARP1): 0.0448 ± 0.0125 µM
- eliminate rate in vivo [1]: moderate
- MRT ([1]; 10 mg/kg): 3.82 h and 3.34 h and 5.57 h and 3.04 h
- AUC0-∞ ([1]; 10 mg/kg, mean): 471 ng·h/mL
- bioavailability ([1]; male, Sprague-Dawley (SD), rat, plasma, po, read-out: F (absolute bioavailability)): 58.9%
- AUC(0-inf) ([1]; male, Sprague-Dawley (SD), rat, plasma, po, 10 mg/kg): 404 ng·h/mL
- AUC0-t ([1]; male, Sprague-Dawley (SD), rat, plasma, po, 10 mg/kg, read-out: AUC0-t): 452 ± 103 ng·h/mL
- MRT ([1]; male, Sprague-Dawley (SD), rat, plasma, po, 10 mg/kg, read-out: MRT): 3.94 ± 1.13 h
- IC50 (PARP2): 0.0019 µM
- IC50 (TNKS2): 1.3 µM
Compound: CNCc1ccc(-c2cc3cc(F)cc(C(N)=O)c3o2)cc1 [compound 5b, 5-fluoro-2-{4-[(methylamino)methyl]phenyl}benzofuran-7-carboxamide]
- AUC0-t ([1]; 10 mg/kg): 394 ng·h/mL and 587 ng·h/mL and 352 ng·h/mL and 474 ng·h/mL
- AUC0-∞ ([1]; 10 mg/kg): 595 ng·h/mL and 407 ng·h/mL and 478 ng·h/mL
- IC50 [2]: 0.59 ± 0.15 µM
- IC50 (wild type cell line V79): > 10 µM
